According to BindingDB's records for doi:10.1016/j.bmcl.2005.04.021 (Novartis Institutes For Biomedical Research, 2005):

target: T1, Adenosine receptor A2b (Homo sapiens, UniProt P29275); assay: Inhibition of luciferase production elicited by NECA by compound in CHO cells transfected with human adenosine A2b receptor and a luciferase expressing reporter plasmid in a reporter gene assay
T1 sequence (P29275 whole entry): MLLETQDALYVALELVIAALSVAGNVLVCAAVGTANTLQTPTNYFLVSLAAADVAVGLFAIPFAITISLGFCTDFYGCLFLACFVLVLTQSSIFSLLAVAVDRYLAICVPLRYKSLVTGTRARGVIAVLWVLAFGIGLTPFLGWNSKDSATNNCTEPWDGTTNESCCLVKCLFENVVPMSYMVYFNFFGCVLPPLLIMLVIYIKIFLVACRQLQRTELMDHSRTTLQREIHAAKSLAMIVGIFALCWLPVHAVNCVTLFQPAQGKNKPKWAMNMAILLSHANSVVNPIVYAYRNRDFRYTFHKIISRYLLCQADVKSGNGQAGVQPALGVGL

Row | SMILES | KB [nM]
1 | N#Cc1cccc(-c2nc(Nc3ccccn3)sc2-n2cncn2)c1 [3-[2-(Pyridin-2-ylamino)-5-[1,2,4]triazol-1-yl-thiazol-4-yl]-benzonitrile] | 53
2 | N#Cc1cccc(-c2nc(Nc3cccnc3)sc2-n2cncn2)c1 [3-[2-(Pyridin-3-ylamino)-5-[1,2,4]triazol-1-yl-thiazol-4-yl]-benzonitrile] | 86
3 | N#Cc1cccc(-c2nc(Nc3ccncc3)sc2-n2cncn2)c1 [3-[2-(Pyridin-4-ylamino)-5-[1,2,4]triazol-1-yl-thiazol-4-yl]-benzonitrile] | 62
4 | N#Cc1cccc(-c2nc(Nc3cccnc3)sc2-n2ccnc2)c1 [3-[5-Imidazol-1-yl-2-(pyridin-3-ylamino)-thiazol-4-yl]-benzonitrile] | 92
